33 compounds from US20260015341A1, “PI3K INHIBITOR, PREPARATION METHOD THEREFOR, AND USE THEREOF” (HINOVA PHARMACEUTICALS INC., priority 2022, published 2026) can be followed below.

One test concerns MCF-10A cells. As to the kind of experiment: Inhibitory effects on the proliferation of MCF-10A cells (CCK8). As to conditions: 6 days. Format: cell-based. On the procedure: Experimental Example 2: Experiment of Inhibitory Effects on the Proliferation of MCF-10A Cells
MCF-10A cells (Cobioer Bio. #CBP60419MCF) were diluted with complete medium (Cobioer Bio. #CBP60419), seeded in 96-well plate (Corning #3599) at 500 cells/well, and then cultured for 24 h. Then, gradiently diluted compounds were added (starting at a final concentration of 10 μM, 3-fold dilution, 9 dose concentrations), and the final volume was adjusted to 100 μL/well. The plate was incubated at 37° C. under 5% CO2 for 6 days. After the cultivation was completed, CCK8 reagent (Signalway Antibody Bio. #CP002) was added at 10 μL/well, and then the plate was further incubated at 37° C. under 5% CO2 for 2-3 hours. The OD450 nm value was obtained by a microplate reader.
The results are shown in the MCF-OA IC50 column in Table 2.

The next test has as its system T47D cells. As to the kind of experiment: Inhibitory effects on the proliferation of T47D cells (CellTiter-Glo). Format: cell-based. To be noted: 7 days. Here is the method: Experimental Example 3: Experiment of Inhibitory Effects on the Proliferation of T47D Cells
T47D cells (ATCC. #HTB-133) were diluted with RPMI 1640 (Gibco #22400-089) containing 10% FBS (Hyclone #SH30084.03), seeded in 96-well plate (Biosharp #BS-MP-96W) at 1000 cells/well, and then cultured for 24 h. Then, gradiently diluted compounds were added (starting at a final concentration of 10 μM, 3-fold dilution, 9 dose concentrations), and the final volume was adjusted to 150 μL/well. The plate was incubated at 37° C. under […] for 7 days. After the cultivation was completed, CellTiter-Glo reagent (Promega #G7573) was added at 75 μL/well, and then the plate was further incubated at 25° C. for 10 min. After that, the chemiluminescence value was read using an instrument.
The results are shown in the T47D IC50 column in Table 2.
A general note: ATP-based viability assays read luminescence as a measure of living cells.

Broadly, the IC50 is the point on the concentration scale where inhibition reaches its midpoint. Low values mean greater potency, high ones weaker potency. For the compound `COC(=O)c1nc(Cl)ccc1N[C@H](C)c1cc(C)cc2c(=O)nc(-c3ccc(C(F)(F)F)nc3)n(C)c12` [Compound 113], the IC50 in the test on MCF-10A cells (Homo sapiens, 144 h) was above 5 µM.

For `COc1ccc(-c2nc3c([C@@H](C)Nc4ccc(Cl)nc4C(=O)O)cc(C)cc3c(=O)n2C)cc1` [Compound 111], the IC50 with MCF-10A cells (Homo sapiens, 144 h) is above 5 µM.

For the compound `Cc1cc([C@@H](C)Nc2ccc(Cl)nc2C(=O)OC(C)(C)C)c2nc(-c3c(C)noc3C)n(C)c(=O)c2c1` [Compound 50], the IC50 is above 5 µM in the test with MCF-10A cells (Homo sapiens, 144 h) and 1000 to 5000 nM with T47D cells (Homo sapiens, 168 h).

As for `Cc1cc([C@@H](C)Nc2ccccc2C(O)C(F)(F)F)c2oc(-c3ccc(F)cc3)cc(=O)c2c1` (single isomer, unassigned) [Compound 67], the IC50 with MCF-10A cells (Homo sapiens, 144 h) was above 5 µM; with T47D cells (Homo sapiens, 168 h), 1000 to 5000 nM.

For the compound `C[C@@H](Nc1ccc(Cl)nc1C(=O)O)c1cc(Cl)cc2c(=O)n(C)c(-c3ncccn3)nc12` [Compound 98], the IC50 is above 5 µM with MCF-10A cells (Homo sapiens, 144 h) and below 1000 nM in the test on T47D cells (Homo sapiens, 168 h).

`COC(=O)c1nc(Cl)ccc1N[C@@H](C)c1cc(C)cc2c(=O)nc(-c3ccc(C(F)(F)F)nc3)n(C)c12` [Compound 114] gave an IC50 in the test with MCF-10A cells (Homo sapiens, 144 h) above 5 µM.

Turning to `[2H]C([2H])([2H])n1c(-c2ccc(C(F)(F)F)nc2)nc2c([C@@H](C)Nc3ccc(Cl)nc3C(=O)O)cc(C)cc2c1=O` [Compound 94], the IC50 in the test with MCF-10A cells (Homo sapiens, 144 h) is above 5 µM; with T47D cells (Homo sapiens, 168 h), below 1000 nM.

Regarding `C[C@@H](Nc1cccc(F)c1C(=O)O)c1cc(F)cc2c(=O)n(C)c(-c3ccccc3)nc12` [Compound 79], the IC50 was above 5 µM with MCF-10A cells (Homo sapiens, 144 h) and 1000 to 5000 nM in the test on T47D cells (Homo sapiens, 168 h).

On to `Cc1cc([C@@H](C)Nc2ccc(F)cc2C(=O)O)c2nc(-c3ccc(F)cn3)n(C)c(=O)c2c1` [Compound 87], for which the IC50 in the test on MCF-10A cells (Homo sapiens, 144 h) was above 5 µM; with T47D cells (Homo sapiens, 168 h), below 1000 nM.

Consider `Cc1cc([C@@H](C)Nc2cc(F)ccc2C(=O)O)c2nc(-c3ccc(F)cn3)n(C)c(=O)c2c1` [Compound 78], for which the IC50 is above 5 µM with MCF-10A cells (Homo sapiens, 144 h) and 1000 to 5000 nM in the test with T47D cells (Homo sapiens, 168 h).

As to `Cc1cc([C@@H](C)Nc2ccc(Cl)cc2C(=O)O)c2nc(-c3ccc(F)cn3)n(C)c(=O)c2c1` [Compound 90], the IC50 is above 5 µM with MCF-10A cells (Homo sapiens, 144 h) and below 1000 nM with T47D cells (Homo sapiens, 168 h).

With `CCSc1nc2c([C@@H](C)Nc3ccc(Cl)nc3C(=O)OC)cc(F)cc2c(=O)n1C` [Compound 105], the IC50 with MCF-10A cells (Homo sapiens, 144 h) is above 5 µM; in the test on T47D cells (Homo sapiens, 168 h) it was 1000 to 5000 nM.

`Cc1cc([C@@H](C)N[S@+]([O-])C(C)(C)C)c2nc(-c3ccncc3)n(C)c(=O)c2c1` [Compound 108]: the IC50 in the test with MCF-10A cells (Homo sapiens, 144 h) was above 5 µM; with T47D cells (Homo sapiens, 168 h), above 5000 nM.

Turning to `COC(=O)c1nc(Cl)ccc1NC(C)c1cc(C)cc2c(=O)n(C)c(-c3ccc(OC)cc3)nc12` (centres unmarked) [Compound 106], the IC50 was above 5 µM with MCF-10A cells (Homo sapiens, 144 h) and below 1000 nM with T47D cells (Homo sapiens, 168 h).

`Cc1cc([C@@H](C)Nc2ccc(Cl)nc2C(=O)O)c2nc(-c3ccc(C(F)(F)F)cn3)n(C)c(=O)c2c1` [Compound 75]: the IC50 in the test with MCF-10A cells (Homo sapiens, 144 h) was above 5 µM; with T47D cells (Homo sapiens, 168 h) it was 1000 to 5000 nM.

For the compound `Cc1cc([C@@H](C)Nc2ccc(Cl)nc2C(N)=O)c2nc(-c3ccncc3)n(C)c(=O)c2c1` [Compound 110], the IC50 with MCF-10A cells (Homo sapiens, 144 h) was above 5 µM; with T47D cells (Homo sapiens, 168 h), below 1000 nM.

Turning to `C[C@@H](Nc1ccc(Cl)nc1C(=O)O)c1cc(Cl)cc2c(=O)n(C)c(-c3ncc(Cl)cn3)nc12` [Compound 97], the IC50 in the test with MCF-10A cells (Homo sapiens, 144 h) was 1 to 5 µM; in the test on T47D cells (Homo sapiens, 168 h) it was below 1000 nM.

For the compound `[2H]C([2H])([2H])n1c(-c2cccc(F)c2)nc2c([C@@H](C)Nc3ccc(Cl)nc3C(=O)O)cc(F)cc2c1=O` [Compound 89], the IC50 in the test with MCF-10A cells (Homo sapiens, 144 h) was above 5 µM; in the test with T47D cells (Homo sapiens, 168 h), 1000 to 5000 nM.

Consider `C[C@@H](Nc1c(C(=O)O)cnn1C)c1cc(Cl)cc2c(=O)n(C)c(-c3ccc(F)cn3)nc12` [Compound 86], for which the IC50 is above 5 µM in the test with MCF-10A cells (Homo sapiens, 144 h) and above 5000 nM with T47D cells (Homo sapiens, 168 h).

As for `[2H]C([2H])([2H])n1c(-c2cccc(F)c2)nc2c([C@@H](C)Nc3ccc(Cl)nc3C(=O)O)cc(C)cc2c1=O` [Compound 93], the IC50 is above 5 µM with MCF-10A cells (Homo sapiens, 144 h) and below 1000 nM in the test on T47D cells (Homo sapiens, 168 h).

As to `COc1ccc(-c2nc3c([C@@H](C)Nc4ccc(Cl)nc4C(N)=O)cc(C)cc3c(=O)n2C)cc1` [Compound 112], the IC50 with MCF-10A cells (Homo sapiens, 144 h) lay within 1 to 5 µM.

Regarding `Cc1cc([C@@H](C)Nc2ccccc2C(=O)OC(C)(C)C)c2nc(-c3c(C)noc3C)n(C)c(=O)c2c1` [Compound 49], the IC50 with MCF-10A cells (Homo sapiens, 144 h) is above 5 µM; with T47D cells (Homo sapiens, 168 h), 1000 to 5000 nM.

As for `[2H]C([2H])([2H])n1c(-c2ccc(F)cn2)nc2c([C@@H](C)Nc3ccc(Cl)cc3C(=O)O)cc(F)cc2c1=O` [Compound 88, (R)-5-chloro-2-((1-(6-fluoro-2-(5-fluoropyridin-2-yl)-3-deuteromethyl-4-oxo-3,4-dihydroquinazolin-8-yl)ethyl)amino)benzoic Acid], the IC50 with MCF-10A cells (Homo sapiens, 144 h) was above 5 µM; in the test on T47D cells (Homo sapiens, 168 h), above 5000 nM.

Consider `COC(=O)c1occc1N[C@H](C)c1cc(C)cc2c(=O)cc(-c3ccc(F)cc3F)oc12` [Compound 63, methyl (R)-3-((1-(2-(2,4-difluorophenyl)-6-methyl-4-oxo-4H-chromen-8-yl)ethyl)amino)furan-2-carboxylate], for which the IC50 was above 5 µM with MCF-10A cells (Homo sapiens, 144 h) and 1000 to 5000 nM in the test with T47D cells (Homo sapiens, 168 h).

As to `Cc1cc([C@@H](C)Nc2ccccc2C(O)C(F)(F)F)c2oc(-c3ccc(F)cc3)cc(=O)c2c1` (single isomer, unassigned) [Compound 68], the IC50 was above 5 µM in the test with MCF-10A cells and 1000 to 5000 nM in the test on T47D cells.

Take `Cc1cc([C@@H](C)Nc2ccccc2C(N)=O)c2oc(-c3ccc(F)cc3F)cc(=O)c2c1` [Compound 47]: the IC50 with MCF-10A cells (Homo sapiens, 144 h) is above 5 µM; with T47D cells (Homo sapiens, 168 h) it was below 1000 nM.

Regarding `Cc1cc([C@@H](C)Nc2ccccc2C(=NO)C(F)(F)F)c2oc(-c3ccc(F)cc3F)cc(=O)c2c1` (stereo in doubt) [Compound 64, (R,E)-2-(2,4-difluorophenyl)-6-methyl-8-(1-((2-(2,2,2-trifluoro-1-(hydroxyimino)ethyl)phenyl)amino)ethyl)-4H-chromen-4-one], the IC50 in the test with MCF-10A cells (Homo sapiens, 144 h) is above 5 µM; with T47D cells (Homo sapiens, 168 h), 1000 to 5000 nM.

In the case of `Cc1cc(C(C)N2CCc3ccccc32)c2oc(-c3ccc(F)cc3F)cc(=O)c2c1` (centres unmarked) [Compound 116, 2-(2,4-difluorophenyl)-8-(1-(indolin-1-yl)ethyl)-6-methyl-4H-benzopyran-4-one], the IC50 with MCF-10A cells (Homo sapiens, 144 h) was above 5 µM; with T47D cells (Homo sapiens, 168 h), above 5000 nM.

Take `[2H]C([2H])([2H])n1c(-c2ccc(F)cn2)nc2c([C@@H](C)Nc3ccc(F)cc3C(=O)O)cc(F)cc2c1=O` [Compound 91]: the IC50 with MCF-10A cells (Homo sapiens, 144 h) is above 5 µM; in the test with T47D cells (Homo sapiens, 168 h), below 1000 nM.

Turning to `COc1ccc(-c2nc3c(C(C)N)cc(C)cc3c(=O)n2C)cc1` (centres unmarked) [Compound 107], the IC50 is above 5 µM in the test with MCF-10A cells (Homo sapiens, 144 h) and below 1000 nM in the test on T47D cells (Homo sapiens, 168 h).

Take `C[C@@H](Nc1cc(F)ccc1C(=O)O)c1cc(F)cc2c(=O)n(C)c(-c3ccc(F)cn3)nc12` [Compound 81]: the IC50 with MCF-10A cells (Homo sapiens, 144 h) is above 5 µM; with T47D cells (Homo sapiens, 168 h) it was above 5000 nM.

Regarding `Cc1cc([C@@H](C)Nc2ccc(Cl)nc2C(=O)O)c2nc(-c3ccncc3)n(C)c(=O)c2c1` [Compound 109, (R)-6-chloro-3-((1-(3,6-dimethyl-4-oxo-2-(pyridin-4-yl)-3,4-dihydroquinazolin-8-yl)ethyl)amino)pyridinecarboxylic Acid], the IC50 in the test with MCF-10A cells (Homo sapiens, 144 h) is above 5 µM; in the test on T47D cells (Homo sapiens, 168 h), below 1000 nM.

For the compound `C[C@@H](Nc1ccc(Cl)nc1C(=O)O)c1cc(Cl)cc2c(=O)n(C)c(-c3ccc(F)cn3)nc12` [Compound 83], the IC50 in the test on MCF-10A cells (Homo sapiens, 144 h) is above 5 µM; in the test with T47D cells (Homo sapiens, 168 h), below 1000 nM.
